These results are taken from US6159501A, “Modified release multiple-units dosage composition for release of opioid compounds” (Nycomed Danmark A/S, priority 1996, dated 2000).

Series [1] is described as follows: Test 3 (PDMO-018): adverse events. As for the experimental part: Volunteers were asked to report any changes in normal health to the investigator. The investigator recorded in the CRFs the event, date and time for onset and cessation, frequency, severity, outcome, causality, classification and any action taken.
Further a urine sample was screened for drug abuse and pregnancy test was performed for female volunteers. If negative drugs of abuse and pregnancy test the volunteers were challenged in the first period only with a direct i.v. injection of about 0.5 ml naloxone 0.4 mg/ml (Narcan®).

For series [2] the following is noted: cited from earlier work.

For `O=C1CC[C@@]2(O)[C@H]3Cc4ccc(O)c5c4[C@@]2(CCN3CC2CC2)[C@H]1O5` [naltrexone], the “adverse events (number)” value in series [1] was 13 AEs.
For the compound `CN1CC[C@]23c4c5ccc(O)c4O[C@H]2[C@@H](O)C=C[C@H]3[C@H]1C5` [morphine], the “average duration of action for the first single dose” value in series [2] (10 mg of oral, i.m. or s.c. morphine) is 4 to 5 h.
Regarding `CN1CC[C@]23c4c5ccc(O)c4O[C@H]2[C@@H](O[C@@H]2O[C@H](C(=O)O)[C@@H](O)[C@H](O)[C@H]2O)C=C[C@H]3[C@H]1C5` [morphine-6-glucuronide], the “half-life, comparison” value in series [2] (in vivo) is on record as “longer half-life”.
